Cc1occc(=O)c1O
solubility (mole fraction)
Settings | 288.15 K | 293.15 K | 298.15 K | 303.15 K | 308.15 K | 313.15 K | 318.15 K | 323.15 K
in 1,2-dichloroethane | 0.0109 | 0.0143 | 0.0174 | 0.0214 | 0.0262 | 0.0333 | 0.0378 | 0.048
in acetone | 0.0101 | 0.0116 | 0.0134 | 0.0157 | 0.0195 | 0.023 | 0.0265 | 0.0311
in acetonitrile | 0.00735 | 0.00861 | 0.0107 | 0.0136 | 0.016 | 0.0209 | 0.0258 | 0.0325
in ethanol | 0.00894 | 0.0106 | 0.0125 | 0.0156 | 0.0211 | 0.0273 | 0.0331 | 0.0427
in ethyl acetate | 0.0115 | 0.013 | 0.0153 | 0.02 | 0.0225 | 0.0276 | 0.0337 | 0.0413
in isobutanol | 0.00638 | 0.00832 | 0.0108 | 0.0134 | 0.0185 | 0.0238 | 0.0293 | 0.0349
in isopropanol | 0.00683 | 0.00812 | 0.0103 | 0.0129 | 0.0161 | 0.021 | 0.0265 | 0.0328
in methanol | 0.0135 | 0.0159 | 0.0185 | 0.0223 | 0.0267 | 0.0325 | 0.0373 | 0.0465
in n-butanol | 0.00705 | 0.00917 | 0.0115 | 0.0143 | 0.0182 | 0.0228 | 0.03 | 0.0365
in n-butyl acetate | 0.00889 | 0.0101 | 0.0128 | 0.0148 | 0.0193 | 0.0229 | 0.0281 | 0.0317
in n-propanol | 0.00705 | 0.00931 | 0.0118 | 0.0144 | 0.0182 | 0.0233 | 0.028 | 0.0341
in n-propyl acetate | 0.00974 | 0.0105 | 0.013 | 0.0151 | 0.0181 | 0.0226 | 0.026 | 0.0316
in sec-butanol | 0.00716 | 0.00927 | 0.0111 | 0.0153 | 0.0177 | 0.0244 | 0.0304 | 0.0408

— BigSolDB 2.1
